This passage reports IC50 and Ki results from ChEMBL document CHEMBL1909046, “DrugMatrix in vitro pharmacology data”.

For series [1], the target named is T1, Muscarinic acetylcholine receptor M4 (Homo sapiens, UniProt P08173). Note: in other assays of this panel Not Active means under 50% inhibition at 10 µM.
T1 sequence (P08173 whole entry): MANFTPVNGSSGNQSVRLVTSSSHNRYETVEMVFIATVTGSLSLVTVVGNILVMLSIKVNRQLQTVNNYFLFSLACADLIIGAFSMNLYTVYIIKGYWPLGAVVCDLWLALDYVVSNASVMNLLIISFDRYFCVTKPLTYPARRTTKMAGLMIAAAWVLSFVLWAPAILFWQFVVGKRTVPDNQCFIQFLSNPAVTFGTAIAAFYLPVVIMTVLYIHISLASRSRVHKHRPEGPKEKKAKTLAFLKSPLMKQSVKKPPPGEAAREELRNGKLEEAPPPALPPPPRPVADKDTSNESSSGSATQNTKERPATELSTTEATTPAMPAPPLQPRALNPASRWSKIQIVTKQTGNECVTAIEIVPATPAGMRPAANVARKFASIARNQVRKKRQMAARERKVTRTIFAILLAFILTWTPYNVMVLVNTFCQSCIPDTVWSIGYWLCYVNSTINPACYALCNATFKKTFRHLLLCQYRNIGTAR
It is filed as cell membranes, CHO-K1, Membrane. Conditions: for Ki: read-out: Ki.

Series [2] concerns the target Matrix metalloproteinase-9 (Homo sapiens, UniProt P14780). It is filed as cell-based.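 Note: inhibition of isolated MMP-9 enzyme activity toward a synthetic peptide substrate, from the DrugMatrix protease screening panel; in other assays of this panel Not Active means under 50% inhibition at 10 µM.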
Series [3] concerns the target T2, Alpha-1B adrenergic receptor (Rattus norvegicus, UniProt P15823).
T2 sequence (P15823 whole entry): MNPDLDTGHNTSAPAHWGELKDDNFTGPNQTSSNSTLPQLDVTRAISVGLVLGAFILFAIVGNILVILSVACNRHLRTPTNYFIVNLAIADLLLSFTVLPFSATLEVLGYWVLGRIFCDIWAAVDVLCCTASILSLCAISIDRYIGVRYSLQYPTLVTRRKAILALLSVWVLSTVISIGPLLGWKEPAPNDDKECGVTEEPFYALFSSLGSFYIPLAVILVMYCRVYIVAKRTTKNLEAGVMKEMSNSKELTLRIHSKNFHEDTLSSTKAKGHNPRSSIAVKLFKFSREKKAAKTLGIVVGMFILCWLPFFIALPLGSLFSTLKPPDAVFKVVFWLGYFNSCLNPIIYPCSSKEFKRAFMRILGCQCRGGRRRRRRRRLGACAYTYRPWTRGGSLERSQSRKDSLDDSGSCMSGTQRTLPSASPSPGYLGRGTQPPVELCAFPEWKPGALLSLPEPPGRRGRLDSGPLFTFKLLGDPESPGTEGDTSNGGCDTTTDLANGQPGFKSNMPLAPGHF
As to the kind of experiment: DRUGMATRIX: Alpha-1B adrenergic receptor radioligand binding (ligand: prazosin). It is filed as cell membranes, Wistar, Liver, Membrane. Conditions: Not Active = under 50% inhibition at 10 µM.

Series [4] addresses T3, Endothelin-1 receptor (Homo sapiens, UniProt P25101).
T3 sequence (P25101 whole entry): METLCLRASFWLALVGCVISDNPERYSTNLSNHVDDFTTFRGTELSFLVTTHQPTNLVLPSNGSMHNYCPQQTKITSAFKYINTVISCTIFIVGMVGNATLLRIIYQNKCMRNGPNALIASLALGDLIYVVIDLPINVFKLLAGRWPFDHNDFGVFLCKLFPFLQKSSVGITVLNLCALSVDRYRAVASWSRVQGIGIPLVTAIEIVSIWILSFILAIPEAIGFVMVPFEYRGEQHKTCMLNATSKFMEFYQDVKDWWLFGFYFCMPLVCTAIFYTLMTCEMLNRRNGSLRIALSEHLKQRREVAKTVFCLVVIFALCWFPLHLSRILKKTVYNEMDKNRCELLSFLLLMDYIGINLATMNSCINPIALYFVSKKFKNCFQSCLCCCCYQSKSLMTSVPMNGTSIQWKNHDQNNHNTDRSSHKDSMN
It is filed as cell membranes, Membrane. Conditions: cho-k1.

In series [5] the target is T4, 3-hydroxy-3-methylglutaryl-coenzyme A reductase (Homo sapiens, UniProt P04035).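 Note: enzyme inhibition assay of HMG-CoA reductase using radiolabeled [14C]HMG-CoA as substrate; in other assays of this panel Not Active means under 50% inhibition at 10 µM.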
T4 sequence (P04035 whole entry): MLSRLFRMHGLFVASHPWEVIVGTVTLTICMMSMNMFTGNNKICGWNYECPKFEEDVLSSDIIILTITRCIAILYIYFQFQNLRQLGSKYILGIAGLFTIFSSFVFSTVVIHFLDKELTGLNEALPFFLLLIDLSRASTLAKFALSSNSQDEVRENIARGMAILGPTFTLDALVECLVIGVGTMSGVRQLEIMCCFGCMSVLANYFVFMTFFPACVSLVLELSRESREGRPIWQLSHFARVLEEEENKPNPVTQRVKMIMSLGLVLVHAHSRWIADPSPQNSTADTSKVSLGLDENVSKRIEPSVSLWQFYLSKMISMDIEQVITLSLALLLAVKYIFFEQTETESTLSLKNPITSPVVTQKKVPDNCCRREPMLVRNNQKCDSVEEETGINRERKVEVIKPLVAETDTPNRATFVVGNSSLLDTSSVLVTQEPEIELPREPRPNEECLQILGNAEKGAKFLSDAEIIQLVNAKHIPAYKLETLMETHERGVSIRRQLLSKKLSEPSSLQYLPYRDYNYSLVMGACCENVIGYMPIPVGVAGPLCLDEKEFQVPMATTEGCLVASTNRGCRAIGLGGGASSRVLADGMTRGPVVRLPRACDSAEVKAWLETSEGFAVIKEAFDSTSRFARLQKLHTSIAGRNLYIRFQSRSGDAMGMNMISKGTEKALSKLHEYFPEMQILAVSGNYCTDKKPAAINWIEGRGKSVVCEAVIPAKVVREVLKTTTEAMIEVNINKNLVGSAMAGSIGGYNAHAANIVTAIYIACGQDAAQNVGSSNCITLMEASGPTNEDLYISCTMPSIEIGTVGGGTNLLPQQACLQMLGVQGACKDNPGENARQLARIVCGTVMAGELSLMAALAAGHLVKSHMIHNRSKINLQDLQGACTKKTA
The arrangement: species or system Escherichia coli.

Series [6] has as its target Cytochrome P450 2C19 (Homo sapiens, UniProt P33261). Particulars: bti-tn-5b1-4. Note: in other assays of this panel Not Active means under 50% inhibition at 10 µM.
Series [7] is described as follows: DRUGMATRIX: Atrial Natriuretic Factor (ANF) radioligand binding (ligand: [125I] ANF (rat)). It is filed as cell membranes, Cavia porcellus, Dunkin-Hartley, Adrenal gland, Membrane. Conditions: Not Active = under 50% inhibition at 10 µM.

Matrix metalloproteinase-9, sequence (P14780 whole entry): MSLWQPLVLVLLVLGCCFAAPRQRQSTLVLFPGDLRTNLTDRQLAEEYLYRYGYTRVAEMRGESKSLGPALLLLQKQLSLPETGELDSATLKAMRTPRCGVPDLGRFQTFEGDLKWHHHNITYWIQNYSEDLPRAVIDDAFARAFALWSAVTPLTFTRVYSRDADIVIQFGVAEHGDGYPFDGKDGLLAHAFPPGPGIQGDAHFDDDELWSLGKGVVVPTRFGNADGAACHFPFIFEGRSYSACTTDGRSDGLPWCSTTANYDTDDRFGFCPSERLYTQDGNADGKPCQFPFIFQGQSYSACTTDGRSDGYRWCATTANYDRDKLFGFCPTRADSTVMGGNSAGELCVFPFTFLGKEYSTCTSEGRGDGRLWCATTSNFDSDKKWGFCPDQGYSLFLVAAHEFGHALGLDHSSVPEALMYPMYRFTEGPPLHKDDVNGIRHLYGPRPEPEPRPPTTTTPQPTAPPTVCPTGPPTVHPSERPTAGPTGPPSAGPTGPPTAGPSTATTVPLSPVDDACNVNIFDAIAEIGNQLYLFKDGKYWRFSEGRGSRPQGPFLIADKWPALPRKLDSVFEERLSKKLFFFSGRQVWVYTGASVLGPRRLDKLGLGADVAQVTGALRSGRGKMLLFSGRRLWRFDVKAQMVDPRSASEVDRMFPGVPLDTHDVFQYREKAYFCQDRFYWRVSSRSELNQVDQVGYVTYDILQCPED
Cytochrome P450 2C19, sequence (P33261 whole entry): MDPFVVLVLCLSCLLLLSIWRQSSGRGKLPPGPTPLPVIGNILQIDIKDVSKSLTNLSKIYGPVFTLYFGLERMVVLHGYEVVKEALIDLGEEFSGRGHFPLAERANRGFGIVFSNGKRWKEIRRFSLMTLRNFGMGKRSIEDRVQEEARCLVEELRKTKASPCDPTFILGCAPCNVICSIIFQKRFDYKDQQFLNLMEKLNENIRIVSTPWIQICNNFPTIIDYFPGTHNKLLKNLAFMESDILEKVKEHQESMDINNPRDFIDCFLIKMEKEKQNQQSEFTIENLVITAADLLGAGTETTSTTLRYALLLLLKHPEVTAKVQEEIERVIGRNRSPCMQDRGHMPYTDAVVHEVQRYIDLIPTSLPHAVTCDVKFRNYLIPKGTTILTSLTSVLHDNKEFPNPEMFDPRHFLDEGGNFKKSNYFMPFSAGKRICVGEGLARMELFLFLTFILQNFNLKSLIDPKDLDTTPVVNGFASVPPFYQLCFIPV

The term IC50 denotes the point on the concentration scale where inhibition reaches its midpoint. In general, Ki refers to the equilibrium dissociation constant of an inhibitor or competing ligand from its target. For `c1ccc(Cn2ccnc2)cc1`, the half-maximal inhibitory concentration (IC50) result in series [1] (cho-k1), in series [2], in series [3], in series [4], in series [5] and in series [6] was “Not Active” in each case. The IC50 entry in series [7] is “Not Active”. In addition, the Ki entry in series [6] and in series [7] was “Not Active” throughout.

Regarding `OC[C@H]1OC2C3[C@@H](CO)OC(O[C@H]4[C@H](O)[C@@H](O)[C@@H](O[C@H]5[C@H](O)[C@@H](O)[C@@H](O[C@H]6[C@H](O)[C@@H](O)[C@@H](O[C@H]7[C@H](O)[C@@H](O)[C@@H](O[C@H]8[C@H](O)[C@@H](O)[C@@H](O[C@H]9[C@H](O)[C@@H](O)C(OC1[C@H](O)[C@H]2O)O[C@@H]9CO)O[C@@H]8CO)O[C@@H]7CO)O[C@@H]6CO)O[C@@H]5CO)O[C@@H]4CO)[C@H](O)[C@H]3O`, the IC50 result in series [1] (cho-k1), in series [2], in series [3], in series [4], in series [5] and in series [6] was “Not Active” throughout. Also, the IC50 result in series [7] was “Not Active”. In addition, the Ki result in series [6] and in series [7] was “Not Active” each time.

In the case of `O=c1[nH]c2ccccc2c2ccccc12`, the IC50 result in series [1] (cho-k1), in series [2], in series [3], in series [4], in series [5] and in series [6] was “Not Active” each time. In addition, in series [7], the IC50 result is on record as “Not Active”. For the same compound, the Ki result in series [6] and in series [7] was “Not Active” in each case.

Consider `CO[C@H]1O[C@@H]2O[C@@]3(C)CC[C@H]4[C@H](C)CC[C@@H]([C@H]1C)[C@@]24OO3`, for which the half-inhibitory concentration (IC50) result in series [1] (cho-k1), in series [2], in series [3], in series [4], in series [5] and in series [6] was “Not Active” in each case. The IC50 result in series [7] is on record as “Not Active”. Moreover, the Ki entry in series [6] and in series [7] was “Not Active” each time.

`Nc1ccc(Cc2ccc(N)cc2)cc1`: the 50% inhibitory concentration (IC50) entry in series [1] (cho-k1), in series [2], in series [3], in series [4], in series [5] and in series [6] was “Not Active” throughout. For the same compound, the IC50 entry in series [7] was “Not Active”. Besides, the inhibition constant (Ki) result in series [6] and in series [7] was “Not Active” in each case.

As for `CC(C)NCC(O)COc1ccc(CC(N)=O)cc1` (stereo not given) [ATENOLOL], the concentration for half-maximal inhibition (IC50) result in series [1] (cho-k1), in series [2], in series [3], in series [4], in series [5] and in series [7] was “Not Active” in each case. Further, in series [7], the inhibitory constant (Ki) entry is listed as “Not Active”.

Regarding `C[C@H]1C[C@H]2[C@@H]3CCC4=CC(=O)C=C[C@]4(C)[C@@]3(F)[C@@H](O)C[C@]2(C)[C@@]1(O)C(=O)CO` [BETAMETHASONE], the concentration for half-maximal inhibition (IC50) result in series [1] (cho-k1), in series [2], in series [3], in series [4], in series [5] and in series [7] was “Not Active” throughout. Besides, the Ki result in series [7] is listed as “Not Active”.

As to `COc1ccccc1OCCNCC(O)COc1cccc2[nH]c3ccccc3c12` (stereo not given) [CARVEDILOL], the IC50 entry in series [1] (cho-k1), in series [2], in series [4], in series [5], in series [6] and in series [7] was “Not Active” in each case. Besides, the Ki result in series [6] and in series [7] was “Not Active” throughout.

On to `CC1(COc2ccc(CC3SC(=O)NC3=O)cc2)CCCCC1` (stereo not given) [CIGLITAZONE], for which the half-maximal inhibitory concentration (IC50) in series [1] (read-out: IC50) was 16.2 µM; in series [2] it was “Not Active”; in series [3] it was “Not Active”; in series [4] it was “Not Active”; in series [5], “Not Active”; in series [7], “Not Active”. For the same compound, the inhibitory constant (Ki) in series [1] was 2.26 µM; in series [7], “Not Active”.

For the compound `CNC[C@H](O)c1ccc(O)c(O)c1` [EPINEPHRINE], the concentration for half-maximal inhibition (IC50) entry in series [1] (cho-k1), in series [2], in series [4], in series [5], in series [6] and in series [7] was “Not Active” throughout. Also, the inhibitory constant (Ki) result in series [6] and in series [7] was “Not Active” in each case.

With `NS(=O)(=O)c1cc(C(=O)O)c(NCc2ccco2)cc1Cl` [FUROSEMIDE], the IC50 entry in series [1] (cho-k1), in series [2], in series [3], in series [4], in series [5] and in series [7] was “Not Active” throughout. Moreover, the inhibition constant (Ki) entry in series [7] is recorded as “Not Active”.

For `O=C(O)CNCP(=O)(O)O` [GLYPHOSATE], the IC50 result in series [1] (cho-k1), in series [2], in series [3], in series [4], in series [5] and in series [7] was “Not Active” in each case. Besides, the Ki result in series [7] is on record as “Not Active”.

For `CCN(CCO)CCCC(C)Nc1ccnc2cc(Cl)ccc12` (stereo not given) [HYDROXYCHLOROQUINE], the concentration for half-maximal inhibition (IC50) result in series [1] (cho-k1), in series [2], in series [3], in series [4], in series [5] and in series [7] was “Not Active” in each case. Moreover, in series [7], the Ki result is given as “Not Active”.

In the case of `Cc1cc(C(C)(C)C)c(O)c(C)c1CC1=NCCN1` [OXYMETAZOLINE], the IC50 in series [1] (read-out: IC50) is 3.26 µM; in series [2], “Not Active”; in series [4], “Not Active”; in series [5], “Not Active”; in series [6], “Not Active”; in series [7], “Not Active”. For the same compound, the Ki in series [1] is 0.455 µM; in series [6] it was “Not Active”; in series [7], “Not Active”.

On to `COc1cc([C@@H]2c3cc4c(cc3[C@H](O)[C@H]3COC(=O)[C@H]23)OCO4)cc(OC)c1OC` [PODOFILOX], for which the 50% inhibitory concentration (IC50) entry in series [1] (cho-k1), in series [2], in series [3], in series [4], in series [5] and in series [7] was “Not Active” in each case. Also, in series [7], the Ki result is given as “Not Active”.
